Experimental data taken from patent publication US20230085307A1, “PYRIDAZINONE COMPOUND AND HERBICIDE” (NISSAN CHEMICAL CORPORATION, priority 2019, published 2023).

How the values were obtained:
green foxtail [1] = experiment: Test Example 5: herbicidal effect by foliage application, plastic box (Table 20, symbol G); assay type: in vivo, green foxtail (Setaria viridis); settings: 320 g/ha, foliage application after 14-day growth, evaluated three weeks after application
In short: (§1)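 Foliar spray test: emulsion formulation diluted in water to a set application rate, sprayed onto 14-day-old plants raised in diluvial soil at 25° C to 30° C under glass. Both herbicidal effect and crop effect rated visually three weeks later.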

Japanese bulrush = experiment: Test Example 1: herbicidal activity, application before weed generation under submerged conditions (Table 16, symbol B); assay type: in vivo, Japanese bulrush (Schoenoplectus juncoides); settings: amount of applied herbicide 320 g/ha
In short: (§2)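 Submerged Wagner pots (alluvial soil, 4 cm water) sown with weed seeds and planted with 2.5-leaf rice seedlings; emulsifiable concentrate diluted in water applied to water surface on sowing day. Held in greenhouse at 25-30 °C; injury scored 0-5 by herbicidal rate after three weeks.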

persian speedwell [2] = experiment: Test Example 4: herbicidal effect by soil treatment (Table 19, symbol R); assay type: in vivo, Persian speedwell (Veronica persica); settings: amount of applied herbicide 320 g/ha
In short: (§3)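 Step 1: sow seeds in sterilized diluvial soil, cover ~1.5 cm. Step 2: spray diluted emulsion onto soil surface at predetermined rate. Step 3: greenhouse, 25–30° C, three weeks. Step 4: grade effect on each plant by earlier criteria.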

Italian ryegrass [3] = experiment: Test Example 4: herbicidal effect by soil treatment (Table 19, symbol K); assay type: in vivo, Italian ryegrass (Lolium multiflorum); settings: amount of applied herbicide 320 g/ha
In short: as §3

redroot pigweed [4] = experiment: Test Example 5: herbicidal effect by foliage application, plastic box (Table 20, symbol N); assay type: in vivo, redroot pigweed (Amaranthus retroflexus); settings: 320 g/ha, foliage application after 14-day growth, evaluated three weeks after application
In short: as §1

late watergrass = experiment: Test Example 1: herbicidal activity, application before weed generation under submerged conditions (Table 16, symbol A); assay type: in vivo, late watergrass (Echinochloa oryzicola); settings: amount of applied herbicide 320 g/ha
In short: as §2

lambsquarters [5] = experiment: Test Example 4: herbicidal effect by soil treatment (Table 19, symbol O); assay type: in vivo, lambsquarters (Chenopodium album); settings: amount of applied herbicide 320 g/ha
In short: as §3

Italian ryegrass [6] = experiment: Test Example 5: herbicidal effect by foliage application, plastic box (Table 20, symbol K); assay type: in vivo, Italian ryegrass (Lolium multiflorum); settings: 320 g/ha, foliage application after 14-day growth, evaluated three weeks after application
In short: as §1

wild oat [7] = experiment: Test Example 4: herbicidal effect by soil treatment (Table 19, symbol I); assay type: in vivo, wild oat (Avena fatua); settings: amount of applied herbicide 320 g/ha
In short: as §3

chickweed [8] = experiment: Test Example 4: herbicidal effect by soil treatment (Table 19, symbol P); assay type: in vivo, common chickweed (Stellaria media); settings: amount of applied herbicide 320 g/ha
In short: as §3

barnyard grass [9] = experiment: Test Example 5: herbicidal effect by foliage application, plastic box (Table 20, symbol H); assay type: in vivo, barnyard grass (Echinochloa crus-galli); settings: 320 g/ha, foliage application after 14-day growth, evaluated three weeks after application
In short: as §1

false cleavers = experiment: Test Example 4: herbicidal effect by soil treatment (Table 19, symbol Q); assay type: in vivo, false cleavers (Galium spurium); settings: amount of applied herbicide 320 g/ha
In short: as §3

windgrass [10] = experiment: Test Example 4: herbicidal effect by soil treatment (Table 19, symbol L); assay type: in vivo, windgrass (Apera spica-venti); settings: amount of applied herbicide 320 g/ha
In short: as §3

green foxtail [11] = experiment: Test Example 4: herbicidal effect by soil treatment (Table 19, symbol G); assay type: in vivo, green foxtail (Setaria viridis); settings: amount of applied herbicide 320 g/ha
In short: as §3

southern crabgrass [12] = experiment: Test Example 4: herbicidal effect by soil treatment (Table 19, symbol F); assay type: in vivo, southern crabgrass (Digitaria ciliaris); settings: amount of applied herbicide 320 g/ha
In short: as §3

velvetleaf [13] = experiment: Test Example 5: herbicidal effect by foliage application, plastic box (Table 20, symbol M); assay type: in vivo, velvetleaf (Abutilon theophrasti); settings: 320 g/ha, foliage application after 14-day growth, evaluated three weeks after application
In short: as §1

lambsquarters [14] = experiment: Test Example 5: herbicidal effect by foliage application, plastic box (Table 20, symbol O); assay type: in vivo, lambsquarters (Chenopodium album); settings: 320 g/ha, foliage application after 14-day growth, evaluated three weeks after application
In short: as §1

persian speedwell [15] = experiment: Test Example 5: herbicidal effect by foliage application, plastic box (Table 20, symbol R); assay type: in vivo, Persian speedwell (Veronica persica); settings: 320 g/ha, foliage application after 14-day growth, evaluated three weeks after application
In short: as §1

blackgrass [16] = experiment: Test Example 4: herbicidal effect by soil treatment (Table 19, symbol J); assay type: in vivo, blackgrass (Alopecurus myosuroides); settings: amount of applied herbicide 320 g/ha
In short: as §3

windgrass [17] = experiment: Test Example 5: herbicidal effect by foliage application, plastic box (Table 20, symbol L); assay type: in vivo, windgrass (Apera spica-venti); settings: 320 g/ha, foliage application after 14-day growth, evaluated three weeks after application
In short: as §1

redroot pigweed [18] = experiment: Test Example 4: herbicidal effect by soil treatment (Table 19, symbol N); assay type: in vivo, redroot pigweed (Amaranthus retroflexus); settings: amount of applied herbicide 320 g/ha
In short: as §3

chickweed [19] = experiment: Test Example 5: herbicidal effect by foliage application, plastic box (Table 20, symbol P); assay type: in vivo, common chickweed (Stellaria media); settings: 320 g/ha, foliage application after 14-day growth, evaluated three weeks after application
In short: as §1

barnyard grass [20] = experiment: Test Example 4: herbicidal effect by soil treatment (Table 19, symbol H); assay type: in vivo, barnyard grass (Echinochloa crus-galli); settings: amount of applied herbicide 320 g/ha
In short: as §3

wild oat [21] = experiment: Test Example 5: herbicidal effect by foliage application, plastic box (Table 20, symbol I); assay type: in vivo, wild oat (Avena fatua); settings: 320 g/ha, foliage application after 14-day growth, evaluated three weeks after application
In short: as §1

southern crabgrass [22] = experiment: Test Example 5: herbicidal effect by foliage application, plastic box (Table 20, symbol F); assay type: in vivo, southern crabgrass (Digitaria ciliaris); settings: 320 g/ha, foliage application after 14-day growth, evaluated three weeks after application
In short: as §1

oval-leafed pondweed = experiment: Test Example 1: herbicidal activity, application before weed generation under submerged conditions (Table 16, symbol C); assay type: in vivo, oval-leafed pondweed (Monochoria vaginalis); settings: amount of applied herbicide 320 g/ha
In short: as §2

velvetleaf [23] = experiment: Test Example 4: herbicidal effect by soil treatment (Table 19, symbol M); assay type: in vivo, velvetleaf (Abutilon theophrasti); settings: amount of applied herbicide 320 g/ha
In short: as §3

blackgrass [24] = experiment: Test Example 5: herbicidal effect by foliage application, plastic box (Table 20, symbol J); assay type: in vivo, blackgrass (Alopecurus myosuroides); settings: 320 g/ha, foliage application after 14-day growth, evaluated three weeks after application
In short: as §1

With `Cc1nn(C)c(=O)c(-c2c(-c3ccc(C(C)C)cc3)sc3c(F)cccc23)c1O` [4-042] the “herbicidal effect on G: green foxtail (evaluation grade 0-5)” value (green foxtail [1]) was 4 (Herbicidal rate of 70% or more and less than 90%), the “Herbicidal effect, B: Japanese bulrush” value (Japanese bulrush) was 3 (Herbicidal rate of 40% or more and less than 70%) and the “Herbicidal effect by soil treatment, R: persian speedwell” value (persian speedwell [2]) was 3 (Herbicidal rate of 40% or more and less than 70%). The “Herbicidal effect by soil treatment, K: Italian ryegrass” value (Italian ryegrass [3]) was 0 (Herbicidal rate of 5% or less (almost no effect)), the “herbicidal effect on N: redroot pigweed (evaluation grade 0-5)” value (redroot pigweed [4]) was 5 (Herbicidal rate of 90% or more (almost completely withered)) and the “Herbicidal effect, A: late watergrass” value (late watergrass) was 3 (Herbicidal rate of 40% or more and less than 70%). The “Herbicidal effect by soil treatment, O: lambsquarters” value (lambsquarters [5]) was 3 (Herbicidal rate of 40% or more and less than 70%), the “herbicidal effect on K: Italian ryegrass (evaluation grade 0-5)” value (Italian ryegrass [6]) was 3 (Herbicidal rate of 40% or more and less than 70%) and the “Herbicidal effect by soil treatment, I: wild oat” value (wild oat [7]) was 0 (Herbicidal rate of 5% or less (almost no effect)). The “Herbicidal effect by soil treatment, P: chickweed” value (chickweed [8]) was 5 (Herbicidal rate of 90% or more (almost completely withered)), the “herbicidal effect on H: barnyard grass (evaluation grade 0-5)” value (barnyard grass [9]) was 5 (Herbicidal rate of 90% or more (almost completely withered)) and the “Herbicidal effect by soil treatment, Q: false cleavers” value (false cleavers) was 0 (Herbicidal rate of 5% or less (almost no effect)). For the same molecule, the “Herbicidal effect by soil treatment, L: windgrass” value (windgrass [10]) was 0 (Herbicidal rate of 5% or less (almost no effect)), the “Herbicidal effect by soil treatment, G: green foxtail” value (green foxtail [11]) was 0 (Herbicidal rate of 5% or less (almost no effect)) and the “Herbicidal effect by soil treatment, F: southern crabgrass” value (southern crabgrass [12]) was 0 (Herbicidal rate of 5% or less (almost no effect)). For the same molecule, the “herbicidal effect on M: velvetleaf (evaluation grade 0-5)” value (velvetleaf [13]) was 5 (Herbicidal rate of 90% or more (almost completely withered)), the “herbicidal effect on O: lambsquarters (evaluation grade 0-5)” value (lambsquarters [14]) was 4 (Herbicidal rate of 70% or more and less than 90%) and the “herbicidal effect on R: persian speedwell (evaluation grade 0-5)” value (persian speedwell [15]) was 5 (Herbicidal rate of 90% or more (almost completely withered)). The “Herbicidal effect by soil treatment, J: blackgrass” value (blackgrass [16]) was 0 (Herbicidal rate of 5% or less (almost no effect)), the “herbicidal effect on L: windgrass (evaluation grade 0-5)” value (windgrass [17]) was 0 (Herbicidal rate of 5% or less (almost no effect)) and the “Herbicidal effect by soil treatment, N: redroot pigweed” value (redroot pigweed [18]) was 4 (Herbicidal rate of 70% or more and less than 90%). The “herbicidal effect on P: chickweed (evaluation grade 0-5)” value (chickweed [19]) was 5 (Herbicidal rate of 90% or more (almost completely withered)), the “Herbicidal effect by soil treatment, H: barnyard grass” value (barnyard grass [20]) was 1 (Herbicidal rate of 5% or more and less than 20%) and the “herbicidal effect on I: wild oat (evaluation grade 0-5)” value (wild oat [21]) was 0 (Herbicidal rate of 5% or less (almost no effect)). For the same molecule, the “herbicidal effect on F: southern crabgrass (evaluation grade 0-5)” value (southern crabgrass [22]) was 1 (Herbicidal rate of 5% or more and less than 20%), the “Herbicidal effect, C: oval-leafed pondweed” value (oval-leafed pondweed) was 0 (Herbicidal rate of 5% or less (almost no effect)) and the “Herbicidal effect by soil treatment, M: velvetleaf” value (velvetleaf [23]) was 1 (Herbicidal rate of 5% or more and less than 20%). For the same molecule, the “herbicidal effect on J: blackgrass (evaluation grade 0-5)” value (blackgrass [24]) was 0 (Herbicidal rate of 5% or less (almost no effect)).
